Assay results from US20240425464A1, “Substituted Monohydrazides as Potent Antifungal Agents” (University of Kentucky Research Foundation, priority 2023, published 2024).
In brackets after ≈: the same amount, converted by molar mass. Several values for one entry are separate records, joined by “and”; a condition that tells them apart may be missing. Identical values can stand only once. Like-named read-outs stand apart in the source and are kept apart here.

Columns and labels:
Test in all cases: MIC determination by in vitro antifungal assay
[1] = test system: Candida glabrata ATCC 2001 (H); format: cell-based; settings: ATCC 2001 in text
Protocol: (§1) 10 mg/mL stock solutions of compounds 1a-9j were prepared in dimethyl sulfoxide (DMSO) and were stored at −20° C. in the dark. The antifungal agent amphotericin B (AmB) was purchased from VWR (Radnor PA, USA). AmB was dissolved in DMSO at a final concentration of 5 mg/mL and was stored at −20° C., protected from light. Candida albicans American Type Culture Collection (ATCC) 10231 (strain A), C. albicans ATCC 64124 (B), and C. albicans ATCC MYA-2876 (C) were obtained from Utah State University. C. albicans ATCC 90819 (D), C. albicans ATCC MYA-2310 (E), C. albicans ATCC MYA-1237 (F), C. albicans ATCC MYA-1003 (G), Candida glabrata ATCC 2001 (H), Candida krusei ATCC 6258 (I), Candida parapsilosis ATCC 22019 (J), Cryptococcus neoformans ATCC MYA-895 (M), Aspergillus terreus ATCC MYA-3633 (N), and Aspergillus flavus ATCC MYA-3631 (0) were obtained from the American Type Culture Collection (ATCC; Manassas, VA, USA). Aspergillus nidulans ATCC 38163 (P) was obtained from University of Kentucky. Clinically derived Aspergillus fumigatus NRRL 163 (Q), A. fumigatus NRRL 5109 (R), and A. fumigatus NRRL 6113 (S) were obtained from Northern Regional Research Laboratory (NRRL). Candida auris 384 (K), C. auris 390 (L), and fungal strains 381-400 (including 10 C. auris (AR Bank #381-390), 3 Candida duobushaemulonii (AR Bank #391, AR Bank #392, and AR Bank #394), 2 Candida haemulonii (AR Bank #393 and AR Bank #395), 1 Kodameae ohmeri (AR Bank #396), 1 C. krusei (AR Bank #397), 1 Candida lusitaniae (AR Bank #398), and 2 Saccharomyces cerevisiae strains (AR Bank #399 and AR Bank #400)) were part of a larger fungal library from the AR Bank maintained by the Centers for Disease Control and Prevention (CDC; Atlanta, GA, USA). Filamentous fungi and yeasts were cultivated at 35° C. in RPMI 1640 medium (with L-glutamine, without sodium bicarbonate, Sigma-Aldrich, St. Louis, MO) buffered to a pH of 7.0 with 0.165 M morpholinepropanesulfonic acid (MOPS) buffer (Sigma-Aldrich). For cytotoxicity assays, HepG2 and the mouse macrophage cell line J774A.1 were obtained from University of Kentucky. The human embryonic kidney cell line, HEK-293, was bought from the ATCC. Mammalian cells were grown in Dulbecco's Modified Eagle's Medium (DMEM) (from VWR) with 10% fetal bovine serum (FBS) (from VWR) and 1% Pen/Strep (from ATCC). Cell lines were cultured at 37° C. with 5% CO2 and passaged by trypsinization with 0.05% trypsin: 0.53 mM EDTA (from Sigma-Aldrich).
(§2) The MIC values of compounds 1a-9j against yeast cells (strains A-P and 381-400) were determined in 96-well plates as described in the CLSI documents M27-A3 and M38-A2 with minor modifications.^2 A single colony of freshly prepared yeast cells was used to inoculate 5 mL of yeast extract peptone dextrose (YPD) broth prior to incubation overnight with shaking at 200 rpm at 35° C. From the actively growing yeast culture, 100 µL were then transferred to 900 μL of RPMI 1640 medium and re-adjusted to achieve OD600 of 0.12 (˜1×10^6 CFU/mL). The cell suspension was further diluted to achieve 1:100 in RPMI 1640 medium. 100 μL of cells were added to the wells of a 96-well microtiter plates that contained 100 µL of the compound solution to obtain concentrations of 0.06-31.3 μg/mL of compounds 1a-9j or AmB prior to incubation for 48 h at 35° C. […]

[2] = test system: Candida parapsilosis ATCC 22019 (J); format: cell-based
Protocol: as §1, §2

[3] = test system: Candida krusei ATCC 6258 (I); format: cell-based
Protocol: as §1, §2

[4] = test system: C. albicans ATCC MYA-1237 (F); format: cell-based, Candida albicans; settings: strain F = C. albicans ATCC MYA-1237(R)
Protocol: as §1, §2

[5] = test system: C. albicans ATCC MYA-1003 (G); format: cell-based, Candida albicans; settings: strain G = C. albicans ATCC MYA-1063(R) (footnote), MYA-1003 in text
Protocol: as §1, §2

[6] = test system: C. albicans ATCC 64124 (B); format: cell-based, Candida albicans
Protocol: as §1, §2

[7] = test system: C. albicans ATCC 90819 (D); format: cell-based, Candida albicans
Protocol: as §1, §2

[8] = test system: C. albicans ATCC MYA-2310 (E); format: cell-based, Candida albicans; settings: strain E = C. albicans ATCC MYA-2310
Protocol: as §1, §2

[9] = test system: C. albicans ATCC MYA-2876 (C); format: cell-based, Candida albicans; settings: strain C = C. albicans ATCC MYA-2876(S)
Protocol: as §1, §2

[10] = strain H = C. glabrata ATCC 2004 (footnote)
[11] = strain J = C. parapsilosis ATCC 22019
[12] = strain B = C. albicans ATCC 64124
[13] = strain D = C. albicans ATCC 90819(R)
[14] = Nakaseomyces glabratus, ATCC 2001 / ATCC 2004, strain H = C. glabrata ATCC 2004 (footnote), read-out: MIC
[15] = Lodderomyces parapsilosis, ATCC22019, strain J = C. parapsilosis ATCC 22019, read-out: MIC
[16] = Pichia kudriavzevii, ATCC6258, strain I = C. krusei ATCC 6258, read-out: MIC
[17] = Candida albicans, read-out: MIC
[18] = Candida albicans, ATCC64124, strain B = C. albicans ATCC 64124, read-out: MIC
[19] = Candida albicans, ATCC90819, strain D = C. albicans ATCC 90819(R), read-out: MIC

Structure (SMILES)	MIC [1, 10]	MIC [2, 11]	MIC ([3]; strain I = C. krusei ATCC 6258)	MIC [4]	MIC [5]	MIC [6, 12]	MIC [7, 13]	MIC [8]	MIC [9]	MIC [1, 14]	MIC [2, 15]	MIC [3, 16]	MIC [4, 17]	MIC [5, 17]	MIC [6, 18]	MIC [7, 19]	MIC [8, 17]	MIC [9, 17]	MIC ([3]; against strain I)
O=C(NNc1ccc(Cl)cc1)c1ccc(F)cc1F [Compound 1e]	3.9 μg/mL^−1	31.3 μg/mL^−1	15.6 μg/mL^−1	1.95 μg/mL^−1	7.8 μg/mL^−1	15.6 μg/mL^−1	3.9 μg/mL^−1	7.8 μg/mL^−1	15.6 μg/mL^−1	–	–	–	–	–	–	–	–	–	–
O=C(NNc1ccc(Cl)cc1)c1nc(F)ccc1F [Compound 8e]	3.9 μg/mL^−1	15.6 μg/mL^−1	3.9 μg/mL^−1	>31.3 μg/mL^−1	3.9 μg/mL^−1	7.8 μg/mL^−1	7.8 μg/mL^−1	3.9 μg/mL^−1	3.9 μg/mL^−1	–	–	–	–	–	–	–	–	–	–
COc1ccc(NNC(=O)c2ccc(Br)cn2)cc1 [Compound 4f]	–	–	–	–	–	–	–	–	–	1.95 µg/mL (≈ 6.05 µM)	3.9 µg/mL (≈ 12.1 µM)	0.98 µg/mL (≈ 3.04 µM)	0.98 µg/mL (≈ 3.04 µM)	1.95 µg/mL (≈ 6.05 µM)	3.9 µg/mL (≈ 12.1 µM)	3.9 µg/mL (≈ 12.1 µM)	3.9 µg/mL (≈ 12.1 µM)	1.95 µg/mL (≈ 6.05 µM)	–
O=C(NNc1ccc(Cl)cc1)c1ccccn1 [Compound 2e]	1.95 μg/mL^−1	3.9 μg/mL^−1	1.95 μg/mL^−1	0.98 μg/mL^−1	0.98 μg/mL^−1	0.98 μg/mL^−1	0.24 μg/mL^−1	0.98 μg/mL^−1	1.95 μg/mL^−1	–	–	–	–	–	–	–	–	–	–
O=C(NNc1cc(Cl)cc(Cl)c1)c1ccc(F)cc1F [Compound 1j]	–	–	–	–	–	–	–	–	–	> 31.3 µg/mL	> 31.3 µg/mL	1.95 µg/mL (≈ 6.15 µM)	15.6 µg/mL (≈ 49.2 µM)	7.8 µg/mL (≈ 24.6 µM)	> 31.3 µg/mL	> 31.3 µg/mL	> 31.3 µg/mL	> 31.3 µg/mL	1.95 j·tg mL^−1
O=C(NNc1cccc(Cl)c1)c1ccccn1 [Compound 2b]	1.95 μg/mL^−1	1.95 μg/mL^−1	0.49 μg/mL^−1	0.98 μg/mL^−1	0.49 μg/mL^−1	0.98 μg/mL^−1	0.49 μg/mL^−1	0.98 μg/mL^−1	0.98 μg/mL^−1	–	–	–	–	–	–	–	–	–	–
COc1cccc(NNC(=O)c2ccc(Br)cn2)c1 [Compound 4c]	–	–	–	–	–	–	–	–	–	15.6 µg/mL (≈ 48.4 µM)	3.9 µg/mL (≈ 12.1 µM)	0.24 µg/mL (≈ 0.745 µM)	1.95 µg/mL (≈ 6.05 µM)	0.98 µg/mL (≈ 3.04 µM)	0.98 µg/mL (≈ 3.04 µM)	3.9 µg/mL (≈ 12.1 µM)	1.95 µg/mL (≈ 6.05 µM)	0.49 µg/mL (≈ 1.52 µM)	–
COc1cccc(NNC(=O)c2ncc(F)cc2F)c1 [Compound 7c]	–	–	–	–	–	–	–	–	–	15.6 µg/mL (≈ 55.9 µM)	15.6 µg/mL (≈ 55.9 µM)	15.6 µg/mL (≈ 55.9 µM)	3.9 µg/mL (≈ 14 µM)	1.95 µg/mL (≈ 6.98 µM)	1.95 µg/mL (≈ 6.98 µM)	7.8 µg/mL (≈ 27.9 µM)	3.9 µg/mL (≈ 14 µM)	3.9 µg/mL (≈ 14 µM)	–
COc1cccc(NNC(=O)c2cnccn2)c1 [Compound 9c]	–	–	–	–	–	–	–	–	–	7.8 µg/mL (≈ 31.9 µM)	1.95 µg/mL (≈ 7.98 µM)	0.49 µg/mL (≈ 2.01 µM)	1.95 µg/mL (≈ 7.98 µM)	0.98 µg/mL (≈ 4.01 µM)	0.98 µg/mL (≈ 4.01 µM)	1.95 µg/mL (≈ 7.98 µM)	1.95 µg/mL (≈ 7.98 µM)	1.95 µg/mL (≈ 7.98 µM)	–
O=C(NNc1cccc(F)c1)c1ccccn1 [Compound 2a]	1.95 μg/mL^−1	1.95 μg/mL^−1	0.24 μg/mL^−1	0.98 μg/mL^−1	0.98 μg/mL^−1	0.98 μg/mL^−1	0.49 μg/mL^−1	1.95 μg/mL^−1	0.98 μg/mL^−1	–	–	–	–	–	–	–	–	–	–
COc1ccc(NNC(=O)c2ncc(F)cc2F)cc1 [Compound 7f]	–	–	–	–	–	–	–	–	–	7.8 µg/mL (≈ 27.9 µM)	7.8 µg/mL (≈ 27.9 µM)	0.98 µg/mL (≈ 3.51 µM)	0.98 µg/mL (≈ 3.51 µM)	0.98 µg/mL (≈ 3.51 µM)	1.95 µg/mL (≈ 6.98 µM)	1.95 µg/mL (≈ 6.98 µM)	1.95 µg/mL (≈ 6.98 µM)	1.95 µg/mL (≈ 6.98 µM)	–
C[C@@H]1[C@H](O)[C@@H](C)/C=C/C=C/C=C/C=C/C=C/C=C/C=C/[C@H](O[C@@H]2O[C@H](C)[C@@H](O)[C@H](N)[C@@H]2O)C[C@@H]2O[C@](O)(C[C@@H](O)C[C@@H](O)[C@H](O)CC[C@@H](O)C[C@@H](O)CC(=O)O[C@H]1C)C[C@H](O)[C@H]2C(=O)O [AmB, amphotericin B, reference compound]	0.98 μg/mL^−1	0.98 μg/mL^−1	0.98 μg/mL^−1	1.95 μg/mL^−1	0.98 μg/mL^−1 and 1.95 μg/mL^−1	1.95 μg/mL^−1	0.98 μg/mL^−1	0.98 μg/mL^−1	1.95 μg/mL^−1	–	–	–	–	–	–	–	–	–	–
O=C(NNc1cc(F)cc(F)c1)c1ccc(F)cc1F [Compound 1i]	–	–	–	–	–	–	–	–	–	> 31.3 µg/mL	15.6 µg/mL (≈ 54.9 µM)	1.95 µg/mL (≈ 6.86 µM)	7.8 µg/mL (≈ 27.4 µM)	15.6 µg/mL (≈ 54.9 µM)	15.6 µg/mL (≈ 54.9 µM)	15.6 µg/mL (≈ 54.9 µM)	15.6 µg/mL (≈ 54.9 µM)	15.6 µg/mL (≈ 54.9 µM)	1.95 j·tg mL^−1
O=C(NNc1ccc(F)cc1)c1ccc(F)cn1 [Compound 3d]	15.6 μg/mL^−1	3.9 μg/mL^−1	0.49 μg/mL^−1	1.95 μg/mL^−1	1.95 μg/mL^−1	1.95 μg/mL^−1	1.95 μg/mL^−1	3.9 μg/mL^−1	3.9 μg/mL^−1	–	–	–	–	–	–	–	–	–	–
COc1ccc(NNC(=O)c2nc(F)ccc2F)cc1 [Compound 8f]	–	–	–	–	–	–	–	–	–	7.8 µg/mL (≈ 27.9 µM)	7.8 µg/mL (≈ 27.9 µM)	0.98 µg/mL (≈ 3.51 µM)	0.98 µg/mL (≈ 3.51 µM)	0.98 µg/mL (≈ 3.51 µM)	1.95 µg/mL (≈ 6.98 µM)	1.95 µg/mL (≈ 6.98 µM)	1.95 µg/mL (≈ 6.98 µM)	1.95 µg/mL (≈ 6.98 µM)	–
COc1cccc(NNC(=O)c2ccc(F)cn2)c1 [Compound 3c]	–	3.9 μg/mL^−1	0.24 μg/mL^−1	1.95 μg/mL^−1	0.98 μg/mL^−1	0.95 μg/mL^−1	3.9 μg/mL^−1	1.95 μg/mL^−1	0.49 μg/mL^−1	–	–	–	–	–	–	–	–	–	–
